Experimental data: ChEMBL document CHEMBL5505977, “Discovery of novel pyrrolo[2,3-d]pyrimidines as potent menin-mixed lineage leukemia interaction inhibitors” (Eur J Med Chem, 2024)

Legend:
Menin = biological target: T1, Menin (Homo sapiens, UniProt O00255); assay: Binding affinity to menin (unknown origin) incubated for 1 hr by fluorescence polarization assay
T1 sequence (O00255 whole entry): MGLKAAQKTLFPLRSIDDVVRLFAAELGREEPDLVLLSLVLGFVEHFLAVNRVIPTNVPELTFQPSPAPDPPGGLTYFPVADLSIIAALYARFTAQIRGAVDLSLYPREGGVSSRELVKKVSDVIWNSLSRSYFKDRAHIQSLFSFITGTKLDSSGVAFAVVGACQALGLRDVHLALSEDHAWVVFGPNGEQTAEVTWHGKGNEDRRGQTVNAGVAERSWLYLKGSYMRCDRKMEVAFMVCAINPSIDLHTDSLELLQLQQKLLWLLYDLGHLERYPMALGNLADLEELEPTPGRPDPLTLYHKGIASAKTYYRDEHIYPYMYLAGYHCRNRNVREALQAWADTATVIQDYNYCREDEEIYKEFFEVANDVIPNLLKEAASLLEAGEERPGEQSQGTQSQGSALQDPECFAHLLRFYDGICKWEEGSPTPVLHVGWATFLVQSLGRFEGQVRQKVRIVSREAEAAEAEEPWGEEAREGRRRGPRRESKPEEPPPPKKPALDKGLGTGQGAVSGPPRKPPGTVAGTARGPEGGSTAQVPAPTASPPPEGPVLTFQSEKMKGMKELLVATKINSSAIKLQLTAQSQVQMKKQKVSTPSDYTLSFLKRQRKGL

HL-60 = assay: Antiproliferative activity against human HL-60 cells incubated for 72 hrs by MTT assay; type: functional, cell-based; conditions: HL-60, 72 h
MV4-11 [1] = assay: cells; conditions: Homo sapiens, MV4-11, 72 h
Description: Antiproliferative activity against human MV4-11 cells incubated for 72 hrs by MTT assay

MV4-11 [2] = assay: Antiproliferative activity against human MV4-11 cells incubated for 7 days by PrestoBlue Cell Viability assay; type: functional, cell-based; conditions: MV4-11, 168 h
[3] = biological target: Voltage-gated inwardly rectifying potassium channel KCNH2 (Homo sapiens, UniProt Q12809); assay: Inhibition of human ERG expressed in CHO cells by Q-patch clamp assay; type: toxicity, cell-based
SU-DHL-6 = assay: Antiproliferative activity against human SU-DHL-6 cells incubated for 72 hrs by MTT assay; type: functional, cell-based; conditions: SU-DHL-6, 72 h
Pfeiffer = assay: Antiproliferative activity against human Pfeiffer cells incubated for 72 hrs by MTT assay; type: functional, cell-based
Raji = assay: Antiproliferative activity against human Raji cells incubated for 72 hrs by MTT assay; type: functional, cell-based
Ramos = assay: Antiproliferative activity against human Ramos cells incubated for 72 hrs by MTT assay; type: functional, cell-based
HCT-116 = assay: Antiproliferative activity against human HCT-116 cells incubated for 72 hrs by MTT assay; type: functional, cell-based; conditions: HCT-116, 72 h
MCF7 = assay: Antiproliferative activity against human MCF7 cells incubated for 72 hrs by MTT assay; type: functional, cell-based; conditions: MCF7, 72 h
[4] = Antiproliferative activity against human NCM460 cells incubated for 72 hrs by MTT assay; type: toxicity, cell-based
[5] = biological target: T2, Menin/Histone-lysine N-methyltransferase MLL (Homo sapiens, UniProt O00255); assay: Inhibition of human menin-MLL (unknown origin) protein-protein interaction incubated for 0.5 to 4 hrs by TR-FRET assay
[6] = biological target: T2, Menin/Histone-lysine N-methyltransferase MLL; assay: Inhibition of human menin-MLL (unknown origin) protein-protein interaction by fluorescence polarization assay

T2 sequence (Q03164 1-2718 partner limits assumed, one chain of several): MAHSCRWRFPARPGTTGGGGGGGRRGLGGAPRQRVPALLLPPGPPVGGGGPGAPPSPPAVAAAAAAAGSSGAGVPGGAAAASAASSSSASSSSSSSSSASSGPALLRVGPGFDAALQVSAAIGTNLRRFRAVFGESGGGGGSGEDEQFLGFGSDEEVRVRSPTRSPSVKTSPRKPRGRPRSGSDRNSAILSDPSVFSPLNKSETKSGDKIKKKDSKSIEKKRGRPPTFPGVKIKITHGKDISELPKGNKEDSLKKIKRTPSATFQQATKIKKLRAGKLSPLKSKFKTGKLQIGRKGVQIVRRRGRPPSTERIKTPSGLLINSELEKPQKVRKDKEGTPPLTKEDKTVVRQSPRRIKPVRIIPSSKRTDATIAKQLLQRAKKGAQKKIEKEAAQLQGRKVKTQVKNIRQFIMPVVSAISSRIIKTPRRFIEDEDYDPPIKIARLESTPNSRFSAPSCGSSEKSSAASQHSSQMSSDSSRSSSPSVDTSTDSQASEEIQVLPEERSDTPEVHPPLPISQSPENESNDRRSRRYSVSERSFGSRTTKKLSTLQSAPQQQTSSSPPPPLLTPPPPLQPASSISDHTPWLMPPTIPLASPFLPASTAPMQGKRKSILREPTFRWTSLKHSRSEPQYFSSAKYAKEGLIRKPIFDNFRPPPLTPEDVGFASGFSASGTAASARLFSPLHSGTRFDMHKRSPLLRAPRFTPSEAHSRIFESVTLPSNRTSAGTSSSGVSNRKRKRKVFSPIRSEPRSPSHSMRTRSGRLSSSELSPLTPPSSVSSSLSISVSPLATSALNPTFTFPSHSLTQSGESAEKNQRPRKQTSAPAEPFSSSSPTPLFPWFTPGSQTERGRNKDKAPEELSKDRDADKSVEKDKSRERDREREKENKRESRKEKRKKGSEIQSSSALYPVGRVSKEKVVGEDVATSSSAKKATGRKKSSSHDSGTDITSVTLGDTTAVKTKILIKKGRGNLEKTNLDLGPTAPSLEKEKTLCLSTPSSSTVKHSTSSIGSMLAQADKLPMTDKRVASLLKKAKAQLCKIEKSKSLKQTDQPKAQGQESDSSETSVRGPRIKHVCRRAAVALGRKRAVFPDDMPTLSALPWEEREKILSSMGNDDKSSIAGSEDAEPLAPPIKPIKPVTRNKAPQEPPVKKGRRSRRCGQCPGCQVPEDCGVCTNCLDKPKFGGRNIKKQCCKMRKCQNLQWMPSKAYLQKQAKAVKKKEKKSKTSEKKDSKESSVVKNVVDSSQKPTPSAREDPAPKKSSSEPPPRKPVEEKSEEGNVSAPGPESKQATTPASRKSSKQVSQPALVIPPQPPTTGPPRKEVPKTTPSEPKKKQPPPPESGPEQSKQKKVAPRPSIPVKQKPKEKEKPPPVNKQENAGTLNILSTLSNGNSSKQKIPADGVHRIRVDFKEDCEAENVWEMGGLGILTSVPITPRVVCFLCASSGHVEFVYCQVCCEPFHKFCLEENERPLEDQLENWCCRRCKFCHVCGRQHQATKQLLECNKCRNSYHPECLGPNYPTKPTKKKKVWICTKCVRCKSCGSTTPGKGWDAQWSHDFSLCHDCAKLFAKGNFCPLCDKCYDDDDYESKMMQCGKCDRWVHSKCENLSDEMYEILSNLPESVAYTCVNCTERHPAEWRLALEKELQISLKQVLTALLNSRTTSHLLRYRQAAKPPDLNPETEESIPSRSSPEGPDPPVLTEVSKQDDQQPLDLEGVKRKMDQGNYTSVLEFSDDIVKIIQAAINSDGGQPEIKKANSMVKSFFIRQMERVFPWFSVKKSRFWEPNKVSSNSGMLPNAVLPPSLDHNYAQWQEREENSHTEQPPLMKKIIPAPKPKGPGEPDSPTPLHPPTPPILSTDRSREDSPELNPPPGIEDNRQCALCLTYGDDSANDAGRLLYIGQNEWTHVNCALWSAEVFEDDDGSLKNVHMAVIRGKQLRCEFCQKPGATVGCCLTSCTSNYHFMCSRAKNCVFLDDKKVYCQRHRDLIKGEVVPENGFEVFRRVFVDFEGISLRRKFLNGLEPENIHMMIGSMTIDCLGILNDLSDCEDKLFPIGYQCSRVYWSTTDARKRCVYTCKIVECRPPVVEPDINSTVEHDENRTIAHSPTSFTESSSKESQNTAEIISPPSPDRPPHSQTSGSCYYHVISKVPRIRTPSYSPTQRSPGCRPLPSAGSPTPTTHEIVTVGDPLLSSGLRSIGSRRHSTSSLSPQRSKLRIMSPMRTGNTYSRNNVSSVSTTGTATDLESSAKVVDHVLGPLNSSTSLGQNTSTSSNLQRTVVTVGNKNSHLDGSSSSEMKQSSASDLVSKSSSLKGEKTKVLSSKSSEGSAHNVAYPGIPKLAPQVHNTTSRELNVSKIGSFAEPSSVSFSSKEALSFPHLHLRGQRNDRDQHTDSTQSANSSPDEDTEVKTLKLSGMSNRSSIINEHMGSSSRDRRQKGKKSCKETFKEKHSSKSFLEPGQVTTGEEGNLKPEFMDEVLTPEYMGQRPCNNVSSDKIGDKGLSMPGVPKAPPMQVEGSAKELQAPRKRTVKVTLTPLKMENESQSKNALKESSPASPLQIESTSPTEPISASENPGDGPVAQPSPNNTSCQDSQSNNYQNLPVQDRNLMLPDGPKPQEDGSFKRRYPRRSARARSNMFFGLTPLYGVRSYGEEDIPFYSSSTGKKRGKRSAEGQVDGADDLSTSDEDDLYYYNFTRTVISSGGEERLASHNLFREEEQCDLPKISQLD
T2 sequence (Q03164 2719-3969 partner limits assumed, one chain of several): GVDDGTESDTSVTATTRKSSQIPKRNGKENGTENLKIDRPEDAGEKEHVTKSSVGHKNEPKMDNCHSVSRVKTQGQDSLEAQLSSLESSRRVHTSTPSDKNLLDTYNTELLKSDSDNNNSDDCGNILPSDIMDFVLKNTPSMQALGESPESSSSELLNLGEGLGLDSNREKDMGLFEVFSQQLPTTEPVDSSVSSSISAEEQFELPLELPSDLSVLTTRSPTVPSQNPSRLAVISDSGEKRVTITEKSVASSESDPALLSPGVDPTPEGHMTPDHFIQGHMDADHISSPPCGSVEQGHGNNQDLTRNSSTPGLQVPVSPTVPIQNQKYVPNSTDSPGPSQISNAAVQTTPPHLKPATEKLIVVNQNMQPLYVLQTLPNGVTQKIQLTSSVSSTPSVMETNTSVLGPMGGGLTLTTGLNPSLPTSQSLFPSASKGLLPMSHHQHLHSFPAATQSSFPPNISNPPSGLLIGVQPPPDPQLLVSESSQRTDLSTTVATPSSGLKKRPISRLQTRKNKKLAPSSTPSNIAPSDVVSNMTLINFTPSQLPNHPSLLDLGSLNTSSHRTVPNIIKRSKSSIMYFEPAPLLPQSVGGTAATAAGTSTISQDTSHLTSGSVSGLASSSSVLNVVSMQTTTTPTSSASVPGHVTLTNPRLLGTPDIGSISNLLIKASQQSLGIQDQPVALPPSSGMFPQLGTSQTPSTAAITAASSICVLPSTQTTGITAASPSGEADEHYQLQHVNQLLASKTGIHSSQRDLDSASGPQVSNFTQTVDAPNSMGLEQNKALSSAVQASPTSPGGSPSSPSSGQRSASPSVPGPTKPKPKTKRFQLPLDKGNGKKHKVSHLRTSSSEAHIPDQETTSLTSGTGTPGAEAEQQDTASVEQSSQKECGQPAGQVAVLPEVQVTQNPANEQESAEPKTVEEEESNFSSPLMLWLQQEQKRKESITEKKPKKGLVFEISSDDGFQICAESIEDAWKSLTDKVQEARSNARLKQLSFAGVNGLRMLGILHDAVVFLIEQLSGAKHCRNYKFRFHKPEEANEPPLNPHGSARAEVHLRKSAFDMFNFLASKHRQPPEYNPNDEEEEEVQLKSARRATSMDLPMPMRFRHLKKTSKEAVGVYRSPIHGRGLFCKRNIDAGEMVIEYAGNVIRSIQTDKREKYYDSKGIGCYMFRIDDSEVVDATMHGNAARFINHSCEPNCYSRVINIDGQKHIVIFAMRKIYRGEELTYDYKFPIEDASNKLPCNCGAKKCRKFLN
Sequence of Voltage-gated inwardly rectifying potassium channel KCNH2 (Q12809 whole entry): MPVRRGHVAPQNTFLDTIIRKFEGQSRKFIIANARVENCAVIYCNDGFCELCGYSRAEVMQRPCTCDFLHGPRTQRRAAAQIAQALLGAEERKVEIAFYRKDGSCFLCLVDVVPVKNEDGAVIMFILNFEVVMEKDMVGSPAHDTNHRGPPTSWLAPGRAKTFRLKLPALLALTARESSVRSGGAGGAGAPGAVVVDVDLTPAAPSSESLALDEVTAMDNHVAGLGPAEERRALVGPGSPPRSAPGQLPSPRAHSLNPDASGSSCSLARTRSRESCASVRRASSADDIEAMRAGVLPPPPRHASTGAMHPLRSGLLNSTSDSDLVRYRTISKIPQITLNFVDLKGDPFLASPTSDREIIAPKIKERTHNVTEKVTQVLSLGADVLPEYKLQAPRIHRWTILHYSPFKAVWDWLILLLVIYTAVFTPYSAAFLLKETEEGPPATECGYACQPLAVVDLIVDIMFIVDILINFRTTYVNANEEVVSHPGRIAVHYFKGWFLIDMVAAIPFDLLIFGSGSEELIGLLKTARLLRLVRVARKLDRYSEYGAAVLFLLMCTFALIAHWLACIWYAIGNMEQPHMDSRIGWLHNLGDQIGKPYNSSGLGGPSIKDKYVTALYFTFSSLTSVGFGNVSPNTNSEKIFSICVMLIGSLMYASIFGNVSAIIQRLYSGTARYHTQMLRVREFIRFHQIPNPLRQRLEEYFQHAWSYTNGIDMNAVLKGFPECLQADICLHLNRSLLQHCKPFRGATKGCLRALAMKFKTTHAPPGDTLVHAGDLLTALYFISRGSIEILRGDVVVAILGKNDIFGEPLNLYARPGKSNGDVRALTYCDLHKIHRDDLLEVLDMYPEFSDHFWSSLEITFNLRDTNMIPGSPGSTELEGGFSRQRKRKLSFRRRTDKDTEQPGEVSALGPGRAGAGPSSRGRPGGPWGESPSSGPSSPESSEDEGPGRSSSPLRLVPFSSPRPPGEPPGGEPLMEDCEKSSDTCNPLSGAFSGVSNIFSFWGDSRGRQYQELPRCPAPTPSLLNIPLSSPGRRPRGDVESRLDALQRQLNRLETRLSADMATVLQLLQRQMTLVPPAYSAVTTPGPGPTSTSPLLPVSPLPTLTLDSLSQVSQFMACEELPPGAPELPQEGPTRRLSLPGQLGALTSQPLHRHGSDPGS

SMILES | IC50 (Menin) [µM] | IC50 (HL-60) [µM] | IC50 (MV4-11 [1]) [µM] | also measured
CN(C)CCOc1ncnc2c1ccn2C1CCN(CC2CN(c3ccc(C#N)cc3)C2)CC1 | > 10 | > 10 | > 10 | –
Nc1ncnc2c1c(-c1ccc(F)cc1)cn2C1CCN(CC2CN(c3ccc(S(=O)(=O)c4ccncc4)cc3)C2)CC1 | 1.22 | > 10 | > 10 | –
Nc1ncnc2c1c(-c1ccc(F)cc1)cn2C1CCN(CC2CN(c3ccc(S(=O)(=O)C4CCCCC4)cc3)C2)CC1 | 0.25 | > 10 | 2 | –
CC(C)N(C)C(=O)c1cc(F)ccc1-n1cc(C2CCN(C(=O)[C@H]3NC4CCC3CC4)CC2)c2ccncc21 | – | – | – | IC50 (MV4-11 [2]): 0.073 µM; IC50 [3]: > 100 µM
N#Cc1ccc(N2CC(CN3CCC(n4ccc5c(N)ncnc54)CC3)C2)cc1 | 1.47 | > 10 | 5.2 | –
Nc1ncnc2c1c(-c1ccc(F)cc1)cn2C1CCN(CC2CN(c3ccc(S(=O)(=O)C4CC4)cc3)C2)CC1 | 0.47 | 7.5 | 1.26 | –
N#Cc1ccc(N2CC(CN3CCC(n4ccc5cncnc54)CC3)C2)cc1 | > 10 | > 10 | > 10 | –
CC[C@H](Nc1ncnc2[nH]cnc12)c1nc2cccc(F)c2c(=O)n1-c1ccccc1 [IDELALISIB] | – | > 10 | > 10 | IC50 (SU-DHL-6): 0.1 µM; IC50 (Pfeiffer): > 10 µM; IC50 (Raji): > 10 µM; IC50 (Ramos): > 10 µM; IC50 (HCT-116): > 10 µM; IC50 (MCF7): > 10 µM; IC50 at 72 h [4]: > 10 µM
Cc1c(CN2CCC3(CC2)CN(c2ncnc4sc(CC(F)(F)F)cc24)C3)ccc2c1cc(C#N)n2CC(N)=O | – | – | – | IC50 [5]: 0.008 µM
CNc1nc(NC2CCN(Cc3ccc4c(cc(C#N)n4CC45CC(NC=O)(C4)C5)c3C)CC2)c2cc(CC(F)(F)F)sc2n1 | – | – | – | IC50 [6]: 0.00051 µM
